From patent publication US20120058989A1, “ANTIBACTERIAL FLUOROQUINOLONE ANALOGS” (Achaogen, Inc., priority 2008, published 2012)

Legend:
Test in all cases: MIC, CLSI broth microdilution
Type in all cases: cell-based
[1] = tested on: A. baumannii AABA1009 (Fluoroquinolone-resistant); conditions: Table 2
Outline: (§1)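 CLSI M7-A7 broth microdilution in Mueller Hinton Broth using two-fold compound serial dilutions. Inoculum was prepared from the previous day's agar colonies at a final 5×10^5 CFU/mL. Plates were incubated at 35° C for 20 hours in ambient air.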

[2] = tested on: A. baumannii AABA1020 (Fluoroquinolone-resistant); conditions: Table 3
Outline: as §1

[3] = tested on: A. baumannii AABA1065 (Fluoroquinolone-susceptible)
Outline: as §1

[4] = tested on: E. coli AECO001 (Fluoroquinolone susceptible, ATCC25922)
Outline: as §1

[5] = tested on: E. coli AECO002 (Fluoroquinolone susceptible); conditions: Table 3
Outline: as §1

[6] = tested on: E. coli AECO066 (Fluoroquinolone-resistant)
Outline: as §1

[7] = tested on: E. coli AECO086 (Fluoroquinolone-resistant); conditions: Table 3
Outline: as §1

[8] = tested on: P. aeruginosa APAE001 (Fluoroquinolone-susceptible, ATCC27853)
Outline: as §1

[9] = tested on: P. aeruginosa APAE002 (Fluoroquinolone susceptible); conditions: Table 3
Outline: as §1

[10] = tested on: P. aeruginosa APAE054 (Fluoroquinolone-resistant)
Outline: as §1

[11] = tested on: S. aureus ASAU001 (Fluoroquinolone-susceptible, ATCC29213)
Outline: as §1

[12] = tested on: S. aureus ASAU002 (Fluoroquinolone-susceptible, ATCC33591 (MRSA)); conditions: Table 3
Outline: as §1

[13] = tested on: S. aureus ASAU1031 (Fluoroquinolone-resistant)
Outline: as §1

[14] = tested on: S. aureus ASAU1033 (Fluoroquinolone-resistant); conditions: Table 3
Outline: as §1

[15] = tested on: S. pneumoniae ASPN001 (Fluoroquinolone-susceptible, ATCC49619)
Outline: as §1

[16] = tested on: S. pneumoniae ASPN002 (Fluoroquinolone-susceptible, ATCC10813); conditions: Table 3
Outline: as §1

[17] = tested on: S. pneumoniae ASPN1018 (Fluoroquinolone-resistant); conditions: Table 3
Outline: as §1

[18] = tested on: S. pneumoniae ASPN1027 (Fluoroquinolone-resistant)
Outline: as §1

Row | MIC AABA 1009 [1] | MIC AABA1020 [2] | MIC AABA 1065 ([3]; Table 3) | MIC AECO 001 ([4]; Table 3) | MIC AECO002 [5] | MIC AECO 066 ([6]; Table 2) | MIC AECO 066 ([6]; Table 3) | MIC AECO086 [7] | MIC APAE 001 ([8]; Table 3) | MIC APAE002 [9] | MIC APAE 054 ([10]; Table 2) | MIC APAE 054 ([10]; Table 3) | MIC ASAU 001 ([11]; Table 3) | MIC ASAU002 [12] | MIC ASAU 1031 ([13]; Table 2) | MIC ASAU 1031 ([13]; Table 3) | SMILES | MIC AABA 1065 ([3]; Table 2) | MIC AECO 001 ([4]; Table 2, 35° C., 20 hours) | MIC APAE 001 ([8]; Table 2) | MIC ASAU 001 ([11]; Table 2) | also measured
1 | C (MIC's of greater than 8.0 μg/mL = C) | D (MIC's of greater than 8.0 μg/mL = D) | C (MIC's of 2.0 μg/mL to 8.0 μg/mL = C) | C (MIC's of 2.0 μg/mL to 8.0 μg/mL = C) | C (MIC's of 2.0 μg/mL to 8.0 μg/mL = C) | C (MIC's of greater than 8.0 μg/mL = C) | D (MIC's of greater than 8.0 μg/mL = D) | D (MIC's of greater than 8.0 μg/mL = D) | D (MIC's of greater than 8.0 μg/mL = D) | D (MIC's of greater than 8.0 μg/mL = D) | C (MIC's of greater than 8.0 μg/mL = C) | D (MIC's of greater than 8.0 μg/mL = D) | C (MIC's of 2.0 μg/mL to 8.0 μg/mL = C) | C (MIC's of 2.0 μg/mL to 8.0 μg/mL = C) | C (MIC's of greater than 8.0 μg/mL = C) | D (MIC's of greater than 8.0 μg/mL = D) | NC1CC2CCCc3c(c(F)cc4c(=O)c(C(=O)O)cn(C5CC5)c34)N2C1.O=C(O)C(F)(F)F [7C/29, (7aS,9S)-9-Amino-4-cyclopropyl-12-fluoro-1-oxo-4,5,6,7,7a,8,9,10-octahydro-1H-pyrrolo quinoline-2-carboxylic acid trifluoroacetate] | B (MIC's of greater than 1.0 μg/mL to 8.0 μg/mL = B) | B (MIC's of greater than 1.0 μg/mL to 8.0 μg/mL = B) | C (MIC's of greater than 8.0 μg/mL = C) | B (MIC's of greater than 1.0 μg/mL to 8.0 μg/mL = B) | MIC ASAU1033 [14]: D (MIC's of greater than 8.0 μg/mL = D); MIC ASPN 001 ([15]; Table 2): C (MIC's of greater than 8.0 μg/mL = C); MIC ASPN 001 ([15]; Table 3): D (MIC's of greater than 8.0 μg/mL = D); MIC ASPN002 [16]: D (MIC's of greater than 8.0 μg/mL = D); MIC ASPN1018 [17]: D (MIC's of greater than 8.0 μg/mL = D); MIC ASPN 1027 ([18]; Table 2): C (MIC's of greater than 8.0 μg/mL = C); MIC ASPN 1027 ([18]; Table 3): D (MIC's of greater than 8.0 μg/mL = D)
2 | C (MIC's of greater than 8.0 μg/mL = C) | D (MIC's of greater than 8.0 μg/mL = D) | C (MIC's of 2.0 μg/mL to 8.0 μg/mL = C) | B (MIC's of 1.0 μg/mL to 2.0 μg/mL = B) | B (MIC's of 1.0 μg/mL to 2.0 μg/mL = B) | C (MIC's of greater than 8.0 μg/mL = C) | D (MIC's of greater than 8.0 μg/mL = D) | D (MIC's of greater than 8.0 μg/mL = D) | D (MIC's of greater than 8.0 μg/mL = D) | D (MIC's of greater than 8.0 μg/mL = D) | C (MIC's of greater than 8.0 μg/mL = C) | D (MIC's of greater than 8.0 μg/mL = D) | B (MIC's of 1.0 μg/mL to 2.0 μg/mL = B) | B (MIC's of 1.0 μg/mL to 2.0 μg/mL = B) | C (MIC's of greater than 8.0 μg/mL = C) | D (MIC's of greater than 8.0 μg/mL = D) | NC1CC2CC=Cc3c(c(F)cc4c(=O)c(C(=O)O)cn(C5CC5)c34)N2C1.O=C(O)C(F)(F)F [7C/30, (7aS,9S)-9-Amino-4-cyclopropyl-12-fluoro-1-oxo-4,7,7a,8,9,10-hexahydro-1H-pyrrolo[1′,2′:1,7]azepino-[2,3-h]quinoline-2-carboxylic acid trifluoroacetate] | B (MIC's of greater than 1.0 μg/mL to 8.0 μg/mL = B) | B (MIC's of greater than 1.0 μg/mL to 8.0 μg/mL = B) | C (MIC's of greater than 8.0 μg/mL = C) | B (MIC's of greater than 1.0 μg/mL to 8.0 μg/mL = B) | MIC ASAU1033 [14]: D (MIC's of greater than 8.0 μg/mL = D); MIC ASPN 001 ([15]; Table 2): B (MIC's of greater than 1.0 μg/mL to 8.0 μg/mL = B); MIC ASPN 001 ([15]; Table 3): C (MIC's of 2.0 μg/mL to 8.0 μg/mL = C); MIC ASPN002 [16]: C (MIC's of 2.0 μg/mL to 8.0 μg/mL = C); MIC ASPN1018 [17]: C (MIC's of 2.0 μg/mL to 8.0 μg/mL = C); MIC ASPN 1027 ([18]; Table 2): B (MIC's of greater than 1.0 μg/mL to 8.0 μg/mL = B); MIC ASPN 1027 ([18]; Table 3): C (MIC's of 2.0 μg/mL to 8.0 μg/mL = C)
3 | C (MIC's of greater than 8.0 μg/mL = C) | D (MIC's of greater than 8.0 μg/mL = D) | A (MIC's of less than 1.0 = A) | A (MIC's of less than 1.0 = A) | A (MIC's of less than 1.0 = A) | C (MIC's of greater than 8.0 μg/mL = C) | D (MIC's of greater than 8.0 μg/mL = D) | D (MIC's of greater than 8.0 μg/mL = D) | C (MIC's of 2.0 μg/mL to 8.0 μg/mL = C) | B (MIC's of 1.0 μg/mL to 2.0 μg/mL = B) | C (MIC's of greater than 8.0 μg/mL = C) | D (MIC's of greater than 8.0 μg/mL = D) | A (MIC's of less than 1.0 = A) | A (MIC's of less than 1.0 = A) | C (MIC's of greater than 8.0 μg/mL = C) | D (MIC's of greater than 8.0 μg/mL = D) | N[C@@H]1C[C@H]2CCCc3c(c(F)cc4c(=O)c(C(=O)O)cn(C5CC5)c34)N2C1.O=C(O)C(F)(F)F [7D/39, (7aR,9R)-9-Amino-4-cyclopropyl-12-fluoro-1-oxo-4,5,6,7,7a,8,9,10-octahydro-1H-pyrrolo[1′,2′:1,7]-azepino[2,3-h]quinoline-2-carboxylic acid trifluoroacetate] | A (MIC's of 1.0 μg/mL or less = A) | A (MIC's of 1.0 μg/mL or less = A) | B (MIC's of greater than 1.0 μg/mL to 8.0 μg/mL = B) | A (MIC's of 1.0 μg/mL or less = A) | MIC ASAU1033 [14]: D (MIC's of greater than 8.0 μg/mL = D); MIC ASPN 001 ([15]; Table 2): B (MIC's of greater than 1.0 μg/mL to 8.0 μg/mL = B); MIC ASPN 001 ([15]; Table 3): B (MIC's of 1.0 μg/mL to 2.0 μg/mL = B); MIC ASPN002 [16]: B (MIC's of 1.0 μg/mL to 2.0 μg/mL = B); MIC ASPN1018 [17]: D (MIC's of greater than 8.0 μg/mL = D); MIC ASPN 1027 ([18]; Table 2): C (MIC's of greater than 8.0 μg/mL = C); MIC ASPN 1027 ([18]; Table 3): D (MIC's of greater than 8.0 μg/mL = D)
4 | C (MIC's of greater than 8.0 μg/mL = C) | D (MIC's of greater than 8.0 μg/mL = D) | A (MIC's of less than 1.0 = A) | A (MIC's of less than 1.0 = A) | A (MIC's of less than 1.0 = A) | C (MIC's of greater than 8.0 μg/mL = C) | D (MIC's of greater than 8.0 μg/mL = D) | D (MIC's of greater than 8.0 μg/mL = D) | B (MIC's of 1.0 μg/mL to 2.0 μg/mL = B) | B (MIC's of 1.0 μg/mL to 2.0 μg/mL = B) | C (MIC's of greater than 8.0 μg/mL = C) | D (MIC's of greater than 8.0 μg/mL = D) | A (MIC's of less than 1.0 = A) | A (MIC's of less than 1.0 = A) | C (MIC's of greater than 8.0 μg/mL = C) | D (MIC's of greater than 8.0 μg/mL = D) | N[C@@H]1C[C@H]2CC=Cc3c(c(F)cc4c(=O)c(C(=O)O)cn(C5CC5)c34)N2C1.O=C(O)C(F)(F)F [7D/40, (7aR,9R)-9-Amino-4-cyclopropyl-12-fluoro-1-oxo-4,7,7a,8,9,10-hexahydro-1H-pyrrolo[1′,2′:1,7]-azepino[2,3-h]quinoline-2-carboxylic acid trifluoroacetate] | A (MIC's of 1.0 μg/mL or less = A) | A (MIC's of 1.0 μg/mL or less = A) | B (MIC's of greater than 1.0 μg/mL to 8.0 μg/mL = B) | A (MIC's of 1.0 μg/mL or less = A) | MIC ASAU1033 [14]: D (MIC's of greater than 8.0 μg/mL = D); MIC ASPN 001 ([15]; Table 2): B (MIC's of greater than 1.0 μg/mL to 8.0 μg/mL = B); MIC ASPN 001 ([15]; Table 3): B (MIC's of 1.0 μg/mL to 2.0 μg/mL = B); MIC ASPN002 [16]: B (MIC's of 1.0 μg/mL to 2.0 μg/mL = B); MIC ASPN1018 [17]: D (MIC's of greater than 8.0 μg/mL = D); MIC ASPN 1027 ([18]; Table 2): C (MIC's of greater than 8.0 μg/mL = C); MIC ASPN 1027 ([18]; Table 3): D (MIC's of greater than 8.0 μg/mL = D)
